Each compound was assayed against human Nav1.8 (Homo sapiens (Human), UniProt Q9Y5Y9) (assay: QPatch 48 HTX voltage-clamp electrophysiology, half inactivation state (V1/2) protocol, HEK293-Nav1.8 cells). Conditions: HEK293 cells expressing human Nav1.8, human Navβ1 and human TREK1, P2 current.
Assay type: cell-based
Procedure: Human embryonic kidney 293 cells (HEK293) expressing human Nav1.8, human Navβ1 and human TREK1 (HEK293-Nav1.8) were grown in T150 cell culture flasks at 37° C., 5% CO2 incubator. HEK293-Nav1.8 were passaged every 2-3 days when confluency reached 80-90% in T150 cell culture flasks.
Pharmacological assessment of compounds of the invention was performed using the QPatch 48 HTX electrophysiological platform. HEK293-Nav1.8 cells were prepared on the day of use by removing culture media, washing in DPBS, adding Accutase (2 mL to cover the surface, aspirate 1 mL then 1-2 minutes at 37° C.) followed by addition of CHO-SFM II to stop the enzyme digestion and in order to obtain a suspension of 3×10^6 cell/mL.
Compounds of the invention were prepared in an extracellular solution of the following composition: NaCl (145 mM), KCl (4 mM), CaCl2) (2 mM), MgCl (2 mM), HEPES (1 mM), Glucose (10 mM), pH 7.4 with NaOH Osmolality 300 mOsM/L. An intracellular solution of the following composition was used: CsF (115 mM), CsCl (20 mM), NaCl (5 mM), EGTA (10 mM), HEPES (10 mM), Sucrose (20 mM), pH 7.2 with CsOH Osmolality 310 mOsm/L.
Utilizing the voltage-clamp mode in the QPatch 48 HTX system a half inactivation state voltage protocol (V1/2) was used to determine pharmacological activity of compounds of the invention at Nav1.8 ion channels. A V1/2 protocol was utilized with the following voltage steps: a holding voltage of −100 mV was established followed by a 20 ms voltage step to 0 mV (P1), followed by an inactivating voltage step at −46 mV for 8 seconds, followed by a step to −100 mV for 20 ms, before a 20 ms step to 0 mV (P2), then returned to the holding voltage of −100 mV. This voltage protocol was repeated at a frequency of every 15 seconds, the current magnitude was quantified at the P2 step throughout the recording. Inhibition of the measured current amplitude with compounds of the invention was analyzed by fitting a 4-6 points dose-response curve allowing determination of the fifty percent inhibition concentration (IC50). P2 currents were normalized according to measurements made at baseline (Baseline, vehicle only), after compound (Input, at each test concentration), and after positive reference compound (FullResponse, to achieve complete block), fit to the following equation: […]
To assess current run-down over the course of the experiment vehicle-only wells were utilized and the normalized current with vehicle-only (n.IVEH) was determined. To correct the compound response for run-down, the currents were corrected according to the following formula: […]
Compound inhibition was fitted to the following Hill Equation to estimate the half maximal inhibition concentration (IC50)
[formula] • where Y is the normalized run-down corrected inhibition relative to the vehicle control (equivalent to n.IRD_Correct), C the test compound concentration, IC50 the concentration of test compound to inhibit the sodium current by 50%, and h the Hill coefficient.

Sequence of human Nav1.8 (Q9Y5Y9 whole entry): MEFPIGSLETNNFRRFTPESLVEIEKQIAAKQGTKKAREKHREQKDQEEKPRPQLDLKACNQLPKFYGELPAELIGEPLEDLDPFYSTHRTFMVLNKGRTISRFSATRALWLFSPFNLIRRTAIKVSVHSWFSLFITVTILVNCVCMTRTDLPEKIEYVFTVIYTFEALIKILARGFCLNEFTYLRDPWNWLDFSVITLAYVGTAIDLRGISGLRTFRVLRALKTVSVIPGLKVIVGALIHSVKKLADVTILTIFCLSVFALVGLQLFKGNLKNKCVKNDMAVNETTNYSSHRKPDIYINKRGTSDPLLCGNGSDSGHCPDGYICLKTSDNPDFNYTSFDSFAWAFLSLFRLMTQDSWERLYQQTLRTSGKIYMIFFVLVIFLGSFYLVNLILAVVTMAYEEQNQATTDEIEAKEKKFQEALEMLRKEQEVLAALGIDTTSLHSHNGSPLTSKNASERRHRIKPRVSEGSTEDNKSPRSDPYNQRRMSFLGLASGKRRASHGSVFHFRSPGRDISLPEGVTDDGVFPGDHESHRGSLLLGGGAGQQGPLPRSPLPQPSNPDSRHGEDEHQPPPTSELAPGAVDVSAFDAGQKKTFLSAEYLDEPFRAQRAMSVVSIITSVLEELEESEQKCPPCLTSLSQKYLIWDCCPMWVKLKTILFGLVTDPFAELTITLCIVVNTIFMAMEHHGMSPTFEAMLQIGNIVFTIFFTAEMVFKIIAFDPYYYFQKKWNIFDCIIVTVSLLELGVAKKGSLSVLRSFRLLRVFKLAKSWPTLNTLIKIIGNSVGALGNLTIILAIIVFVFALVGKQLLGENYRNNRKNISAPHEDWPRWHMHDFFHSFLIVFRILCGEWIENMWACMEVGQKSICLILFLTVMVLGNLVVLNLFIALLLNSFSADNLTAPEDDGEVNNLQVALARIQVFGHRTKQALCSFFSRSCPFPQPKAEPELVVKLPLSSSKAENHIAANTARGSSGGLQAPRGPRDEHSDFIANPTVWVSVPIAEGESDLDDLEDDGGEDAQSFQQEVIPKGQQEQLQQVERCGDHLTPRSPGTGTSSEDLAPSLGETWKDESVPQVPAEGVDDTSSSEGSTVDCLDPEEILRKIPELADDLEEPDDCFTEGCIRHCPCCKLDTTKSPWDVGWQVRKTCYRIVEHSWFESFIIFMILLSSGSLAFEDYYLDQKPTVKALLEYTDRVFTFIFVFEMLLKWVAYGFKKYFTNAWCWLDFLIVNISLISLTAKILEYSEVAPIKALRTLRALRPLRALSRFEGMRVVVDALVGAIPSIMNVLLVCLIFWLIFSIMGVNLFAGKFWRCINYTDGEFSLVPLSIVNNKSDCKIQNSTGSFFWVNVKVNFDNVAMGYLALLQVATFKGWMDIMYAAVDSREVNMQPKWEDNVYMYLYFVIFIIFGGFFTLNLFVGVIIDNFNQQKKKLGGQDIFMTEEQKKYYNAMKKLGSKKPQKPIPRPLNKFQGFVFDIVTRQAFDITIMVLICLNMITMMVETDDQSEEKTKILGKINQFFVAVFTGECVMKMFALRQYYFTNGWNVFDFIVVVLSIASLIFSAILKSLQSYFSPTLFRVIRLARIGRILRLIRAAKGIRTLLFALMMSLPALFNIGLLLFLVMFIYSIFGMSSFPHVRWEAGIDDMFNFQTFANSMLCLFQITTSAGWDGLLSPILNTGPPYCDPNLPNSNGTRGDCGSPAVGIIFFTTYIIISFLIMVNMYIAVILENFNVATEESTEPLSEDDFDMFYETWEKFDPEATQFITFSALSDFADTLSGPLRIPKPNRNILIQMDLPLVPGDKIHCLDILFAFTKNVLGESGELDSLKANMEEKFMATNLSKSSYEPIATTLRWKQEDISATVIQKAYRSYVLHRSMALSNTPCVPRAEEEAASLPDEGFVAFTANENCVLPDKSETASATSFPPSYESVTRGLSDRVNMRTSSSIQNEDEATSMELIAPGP
Sequence of human Nav1.8 (Q07699 19-218 partner): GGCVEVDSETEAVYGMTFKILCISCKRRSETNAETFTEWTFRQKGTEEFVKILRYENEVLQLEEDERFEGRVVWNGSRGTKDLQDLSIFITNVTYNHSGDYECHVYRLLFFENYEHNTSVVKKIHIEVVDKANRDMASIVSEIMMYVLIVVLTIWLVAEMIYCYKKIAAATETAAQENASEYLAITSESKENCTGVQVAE

Compared with Cc1c(F)ccc2c1CNCCc1[nH]c(=O)ccc1N1CN2c2cc(C#N)c(F)cc2C1=O.Cl [Example 71, 2,8-Difluoro-9-methyl-15,19-dioxo-10,11,12,13,14,15-hexahydro-19H-518-methanodibenzo-[c,f]pyrido[3,2-j][1,5,9]triazacyclotridecine-3-carbonitrile hydrochloride], N#Cc1cc2c(cc1F)C(=O)N1CN2c2ccc(F)c(F)c2CNCCc2[nH]c(=O)ccc21 [Example 57, 2,8,9-Trifluoro-15,19-dioxo-10,11,12,13,14,15-hexahydro-19H-5,18-methano-dibenzo[c,f]pyrido[3,2-j][1,5,9]triazacyclotridecine-3-carbonitrile] is lower in “Nav1.8, pIC50” value: 7.6 for the first, 7.4 for the second.

Compared with O=C1c2cc(C(F)(F)F)ccc2N2CN1c1ccc(=O)[nH]c1CNCCCc1cc(F)ccc12 [Example 104, 3^4-Fluoro-2^6-(trifluoromethyl)-1^1,1^2,2^1,2^2,2^3,2^4-hexahydro-7-aza-2(3,1)quinazolina-1(5,6)-pyridina-3(1,2)-benzenacyclooctaphane-1^2,2^4-dione], O=C1c2cc(C(F)(F)F)ccc2N2CN1c1cc(Cl)c(=O)[nH]c1NCCCc1cc(F)ccc12 [Example 29, 16-Chloro-8-fluoro-2-(trifluoromethyl)-10,11,12,13-tetrahydro-19H-5,18-methanodibenzo[f,i]pyrido[2,3,-b][1,4,8]triazacyclotridecine-15,19(14H)-dione] is higher in “Nav1.8, pIC50” value: 6.9 for the first, 7.1 for the second.

First: COc1c(F)ccc2c1CNCCc1[nH]c(=O)ccc1N1CN2c2cc(F)c(F)cc2C1=O.O=CO [Example 70, 2,3,8-Trifluoro-9-methoxy-10,11,12,13-tetrahydro-19H-5,18-methanodibenzo-[c,f]pyrido[3,2-j][1,5,9]triazacyclotridecine-15,19(14H)-dione, Formic acid salt]
Second: Cl.O=C1c2cc(F)c(F)cc2N2CN1c1ccc(=O)[nH]c1CCNCc1c2ccc(Cl)c1F [Example 74, 8-Chloro-2,3,9-trifluoro-10,11,12,13-tetrahydro-19H-5,18-methanodibenzo-[c,f]pyrido[3,2-j][1,5,9]triazacyclotridecine-15,19(14H)-dione hydrochloride]
The “Nav1.8, pIC50” value of the first is lower: 6.1 for the first, 7.3 for the second.

Compared with O=C1c2ccc(C(F)(F)F)cc2N2CN1c1ccc(=O)[nH]c1C/C=C\Cc1cc(F)ccc12 [Example 5, 8-Fluoro-3-(trifluoromethyl)-10,13-dihydro-19H-5,18-methanodibenzo[b,l]pyrido[3,2f][1,5]diazacyclo tridecin-15,19(14H)-dione], CN1CCCCc2cc(F)ccc2N2CN(C(=O)c3ccc(C(F)(F)F)cc32)c2ccc(=O)[nH]c21 [Example 13, 3^4-Fluoro-8-methyl-2^7-(trifluoromethyl)-1^1,1^2,2^1,2^2,2^3,2^4-hexahydro-8-aza-2(3,1)-quinazolina-1(5,6)-pyridina-3(1,2)-benzenacyclooctaphan-1^2,2^4-dione] is higher in “Nav1.8, pIC50” value: 6.3 for the first, 7.3 for the second.

Compared with O=C1c2cc(C(F)(F)F)cnc2N2CN1c1ccc(=O)[nH]c1CCCCCc1cc(F)ccc12 [Example 23, 3^4-Fluoro-2^6-(trifluoromethyl)-1^1,1^2,2^1,2^2,2^3,2^4-hexahydro-2(3,1)-pyrido[2,3-d]pyrimidina-1(5,6)-pyridina-3(1,2)-benzenacyclooctaphane-1^2,2^4-dione], O=C1c2cc(C(F)(F)F)ncc2N2CN1c1ccc(=O)[nH]c1NCCCc1cc(F)ccc12 [Example 35, 8-Fluoro-2-(trifluoromethyl)-10,11,12,13-tetrahydro-19H-5,18-methanodibenzo[i]dipyrido[2,3,-b:4′,3′-f][1,4,8]triazacyclotridecine-15,19(14H)-dione] is lower in “Nav1.8, pIC50” value: 7.2 for the first, 6.9 for the second.

Cl.O=C1c2cc(F)c(Br)cc2N2CN1c1ccc(=O)[nH]c1CCNCc1c2ccc(F)c1F [Example 62, 3-Bromo-2,8,9-trifluoro-10,11,12,13-tetrahydro-19H-5,18-methanodibenzo[c,f]pyrido[3,2-j][1,5,9]triazacyclotridecine-15,19(14H)-dione hydrochloride] and Cl.O=C1c2cc(F)c(Cl)cc2N2CN1c1ccc(=O)[nH]c1CCNCc1c2ccc(F)c1F [Example 49, 3-Chloro-2,8,9-trifluoro-10,11,12,13-tetrahydro-19H-5,18-methanodibenzo[c,f]pyrido[3,2-j][1,5,9]triazacyclotridecine-15,19(14H)-dione hydrochloride] are the same in “Nav1.8, pIC50” value: 8.2 for the first, 8.2 for the second.

First: Cl.O=C1c2cc(Cl)c(C(F)(F)F)cc2N2CN1c1ccc(=O)[nH]c1CCNCc1c2ccc(F)c1F [Example 60, 2-Chloro-8,9-difluoro-3-(trifluoromethyl)-10,11,12,13-tetrahydro-19H-5,18-methanodibenzo[c,f]pyrido[3,2-j][1,5,9]triazacyclotridecine-15,19(14H)-dione hydrochloride]
Second: Cl.O=C1c2cc(F)c(C(F)(F)F)cc2N2CN1c1ccc(=O)[nH]c1CCNCc1c2ccc(F)c1O [Example 85, 2,8-Difluoro-9-hydroxy-3-(trifluoromethyl)-10,11,12,13-tetrahydro-19H-5,18-methanodibenzo[c,f]pyrido[3,2-i][1,5,9]triazacyclotridecine-15,19(14H)-dione hydrochloride]
The “Nav1.8, pIC50” value of the first is higher: 8.8 for the first, 6.4 for the second.

First: N#Cc1cc2c(cc1Cl)C(=O)N1CN2c2ccc(F)cc2CNCCc2[nH]c(=O)ccc21 [Example 55, 2-Chloro-8-fluoro-15,19-dioxo-10,11,12,13,14,15-hexahydro-19H-5,18-methano-dibenzo[c,f]pyrido[3,2-j][1,5,9]triazacyclotridecine-3-carbonitrile]
Second: Cl.O=C1c2cc(F)c(F)cc2N2CN1c1ccc(=O)[nH]c1CCNCc1cc(OC(F)(F)F)ccc12 [Example 86, 2,3-Difluoro-8-(trifluoromethoxy)-10,11,12,13-tetrahydro-19H-5,18-methanodibenzo[c,f]pyrido[3,2-j][1,5,9]triazacyclotridecine-15,19(14H)-dione hydrochloride]
The “Nav1.8, pIC50” value of the first is lower: 7.2 for the first, 7.5 for the second.

O=C1c2c(ccc(C(F)(F)F)c2F)N2CN1c1ccc(=O)[nH]c1NCCCc1cc(F)ccc12 [Example 33, 1,8-Difluoro-2-(trifluoromethyl)-10,11,12,13-tetrahydro-19H-5,18-methanodibenzo[f,i]pyrido[2,3,-b][1,4,8]triazacyclotridecine-15,19(14H)-dione] and O=C1c2c(ccc(C(F)(F)F)c2F)N2CN1c1ccc(=O)[nH]c1NCCCc1c2ccc(F)c1F [Example 97, 1,8,9-Trifluoro-2-(trifluoromethyl)-10,11,12,13-tetrahydro-19H-5,18-methanodibenzo[f,i]pyrido-[2,3-b][1,4,8]triazacyclotridecine-15,19(14H)-dione] are within 0.2 log units of each other in “Nav1.8, pIC50” value: 7.5 for the first, 7.6 for the second.

Compared with O=C1c2cc(F)c(Cl)cc2N2CN1c1ccc(=O)[nH]c1NCCCc1c2ccc(F)c1F [Example 94, 3-Chloro-2,8,9-trifluoro-10,11,12,13-tetrahydro-19H-5,18-methanodibenzo[f,i]pyrido[2,3-b][1,4,8]triazacyclotridecine-15,19(14H)-dione], Cl.O=C1c2cc(F)c(F)cc2N2CN1c1ccc(=O)[nH]c1CCNCc1c(C(F)F)cccc12 [Example 79, 9-(Difluoromethyl)-2,3-difluoro-10,11,12,13-tetrahydro-19H-5,18-methanodibenzo[c,f]pyrido[3,2-j][1,5,9]triazacyclotridecine-15,19(14H)-dione hydrochloride] is lower in “Nav1.8, pIC50” value: 8.1 for the first, 7.1 for the second.

With CN1CCc2cc(F)ccc2N2CN(C(=O)c3cc(F)c(C(F)(F)F)cc32)c2ccc(=O)[nH]c2CC1 [Example 112, 2^6,3^4-Difluoro-6-methyl-2^7-(trifluoromethyl)-1^1,1^2,2^1,2^2,2^3,2^4-hexahydro-6-aza-2(3,1)-quinazolina-1(5,6)-pyridina-3(1,2)-benzenacyclooctaphane-1^2,2^4-dione] the “Nav1.8, pIC50” value was 6.2.

— patent publication US20250368647A1, “NITROGEN CONTAINING CONDENSED 2,3-DIHYDROQUINAZOLINONE COMPOUNDS AS NAV1.8 INHIBITORS” (GLAXOSMITHKLINE INTELLECTUAL PROPERTY DEVELOPMENT LIMITED, priority 2022, published 2025)
